Target: MDM2 (Homo sapiens, UniProt Q00987)
Test: ITC
Format: binding

Sequence of MDM2 (Q00987 428-491 limits assumed): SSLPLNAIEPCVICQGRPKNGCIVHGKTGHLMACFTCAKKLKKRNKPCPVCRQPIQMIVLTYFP

Compound: O=C(CCl)Nc1cc(O)c2c(c1)C(=O)c1cccc(O)c1C2=O [AQ-101]
- Kd: 370 nM
